Legend:
[1] = test system: CCRF-CEM; assay: Compound tested in Vitro for inhibition of cytopathic activity of HIV-1 on T4 lymphocytes (CEM cells); Inactive; format: functional, cell-based, Homo sapiens
[2] = test system: CCRF-CEM; assay: Compound tested in Vitro for inhibition of cytopathic activity of HIV-1 on T4 lymphocytes (CEM cells); format: functional, cell-based; details: Homo sapiens
[3] = test system: CCRF-CEM; assay: Compound tested in vitro for inhibition of cytopathic activity of AZT-resistant HIV-1 on T4 lymphocytes (CEM cells); format: functional, cell-based; details: Homo sapiens
[4] = test system: CCRF-CEM; assay: Compound tested in vitro for inhibition of cytopathic activity of AZT-sensitive SIV on T4 lymphocytes (CEM cells): IA denotes inactive; format: functional, cell-based, Homo sapiens
[5] = test system: CCRF-CEM; assay: Compound tested in vitro for inhibition of cytopathic activity of AZT-sensitive HIV-2 on T4 lymphocytes (CEM cells): IA denotes inactive; format: functional, cell-based, Homo sapiens
[6] = test system: CCRF-CEM; assay: Compound tested in vitro for inhibition of cytopathic activity of AZT-resistant HIV-2 on T4 lymphocytes (CEM cells): IA denotes inactive; format: functional, cell-based, Homo sapiens
[7] = test system: CCRF-CEM; assay: Compound tested in vitro for inhibition of cytopathic activity of Merck-resistant variant of AZT-sensitive HIV-l (A17) on T4 lymphocytes (CEM cells): IA denotes inactive; format: functional, cell-based, Homo sapiens
[8] = test system: CCRF-CEM; assay: Compound tested in vitro for inhibition of cytopathic activity of AZT-resistant SIV on T4 lymphocytes (CEM cells): IA denotes inactive; format: functional, cell-based, Homo sapiens
[9] = test system: CCRF-CEM; assay: Compound tested in vitro for inhibition of cytopathic activity of Merck-resistant variant of AZT-resistant HIV-l (A17) on T4 lymphocytes (CEM cells): IA denotes inactive; format: functional, cell-based, Homo sapiens
[10] = test system: CCRF-CEM; assay: Compound tested in vitro for inhibition of cytopathic activity of HIV-1 on T4 lymphocytes (CEM cells); format: functional, cell-based; details: Homo sapiens
[11] = test system: CCRF-CEM; assay: Compound tested in vitro for inhibition of cytopathic activity of AZT-sensitive HIV-1 on T4 lymphocytes (CEM cells); format: functional, cell-based; details: Homo sapiens

| SMILES | EC50 [1] | IC50 [1] | EC50 [2] [µM] | IC50 [2] [µM] | further results |
| --- | --- | --- | --- | --- | --- |
| Oc1cc2c(cc1OCc1ccccc1)OC1c3ccccc3OCC21 (stereo not given) | Not Active | Not Active | – | – | – |
| COc1ccc2c(c1)OCC1c3ccc(OCc4ccccc4)cc3OC21 (stereo not given) | – | – | 31.2 | 200 | – |
| COc1ccc2c(c1)OC1c3ccc(OC)cc3OCC21 (stereo not given) | Not Active | Not Active | – | – | – |
| COC(=O)c1c(O)ccc2c1C1COc3cc(OC)ccc3C1O2 (stereo not given) | Not Active | Not Active | – | – | – |
| COc1cc2c(cc1O)C1COc3ccccc3C1O2 (stereo not given) | Not Active | Not Active | – | – | – |
| COC(=O)c1c(O)ccc2c1C1COc3ccccc3C1O2 (stereo not given) | Not Active | Not Active | – | – | – |
| COc1cc2c(c(C)c1O)C1COc3ccccc3C1O2 (stereo not given) | Not Active | Not Active | – | – | – |
| COc1ccc2c(c1)OCC1c3cc(O)c(OCC4CCCCC4)cc3OC21 (stereo not given) | – | – | 1.46 | 22.2 | – |
| COc1ccc2c(c1)OCC1c3cc(CC=C(C)C)c(OCc4ccccc4)cc3OC21 (stereo not given) | Not Active | Not Active | – | – | – |
| COc1ccc2c(c1)OCC1c3cc(O)c(OCC(C)C)cc3OC21 (stereo not given) | – | – | 2.28 | 24.5 | – |
| COc1ccc2c(c1)OCC1c3cc(O)c(OCc4ccccc4)cc3OC21 (stereo not given) | – | – | – | – | EC50 [3]: 1.3 µM; EC50 [4]: Not Active; EC50 [5]: Not Active; EC50 [6]: Not Active; EC50 [7]: Not Active; EC50 [8]: Not Active; EC50 [9]: Not Active; EC50 [10]: 1.21 µM; IC50 [10]: 40.5 µM; EC50 [11]: 3.6 µM |
| COc1ccc2c(c1)OCC1c3cc(OC)c(OCc4ccccc4)cc3OC21 (stereo not given) | – | – | 5.7 | 69.4 | – |
| COc1ccc2c(c1)OCC1c3cc(O)c(OCc4ccc5ccccc5c4)cc3OC21 (stereo not given) | – | – | 3.35 | 34.2 | – |
| COc1ccc2c(c1)OCC1c3cc(O)c(OC)cc3OC21 (stereo not given) | Not Active | Not Active | – | – | – |
| COc1ccc2c(c1)OCC1c3cc(O)c(OCc4cccc5ccccc45)cc3OC21 (stereo not given) | – | – | 0.43 | 38.5 | – |
| COc1ccc2c(c1)OCC1c3cc4c(cc3OC21)OCO4 (stereo not given) | Not Active | Not Active | – | – | – |
